Test results taken from patent US20240294498A1, “FACTOR XIIA INHIBITORS” (Lunac Therapeutics Ltd, priority 2021, published 2024).

How the values were obtained:
Assay type in all cases: biochemical
FXIIa = molecular target: T1, FXIIa (Homo sapiens, UniProt P00748); assay: Determination of Factor XIIa inhibition (chromogenic substrate S-2302); conditions: human FXIIa alpha, Ki category
T1 construct: FXIIa alpha
T1 sequence (P00748 373-615 limits assumed): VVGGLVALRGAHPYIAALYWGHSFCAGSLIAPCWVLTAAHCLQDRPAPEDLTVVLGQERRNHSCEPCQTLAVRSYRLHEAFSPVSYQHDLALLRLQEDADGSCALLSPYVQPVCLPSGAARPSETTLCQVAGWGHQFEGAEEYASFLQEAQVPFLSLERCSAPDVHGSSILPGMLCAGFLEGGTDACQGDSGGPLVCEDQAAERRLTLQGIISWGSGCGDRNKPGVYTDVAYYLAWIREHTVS
T1 sequence (P00748 20-372 partner limits assumed): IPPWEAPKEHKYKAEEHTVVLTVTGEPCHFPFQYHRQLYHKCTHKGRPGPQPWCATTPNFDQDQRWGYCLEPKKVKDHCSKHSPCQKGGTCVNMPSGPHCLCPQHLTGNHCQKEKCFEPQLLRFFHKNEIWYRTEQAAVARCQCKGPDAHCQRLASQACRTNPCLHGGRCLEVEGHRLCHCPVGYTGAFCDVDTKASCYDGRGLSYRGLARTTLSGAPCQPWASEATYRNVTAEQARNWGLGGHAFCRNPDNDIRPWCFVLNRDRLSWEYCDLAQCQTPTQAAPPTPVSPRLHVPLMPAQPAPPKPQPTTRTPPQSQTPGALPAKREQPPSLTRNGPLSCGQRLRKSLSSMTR
In short: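 Compound preincubated with 10 nM FXIIa for 10 min at 37° C in 50 mM Tris, 137 mM NaCl, pH 7.4, 5% DMSO, top concentration 500 μM; S-2302 added at Km. pNA release followed at 405 nm for 3 h; IC50 from initial rates, converted to Ki via Ki = IC50/(1+[S]/Km).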

FXa = FXa (Homo sapiens, UniProt P00742); assay: Determination of selectivity: FXa inhibition (chromogenic substrate S2765); conditions: fold selectivity for FXIIa over FXa (human); category
Sequence of FXa (P00742 235-488 limits assumed): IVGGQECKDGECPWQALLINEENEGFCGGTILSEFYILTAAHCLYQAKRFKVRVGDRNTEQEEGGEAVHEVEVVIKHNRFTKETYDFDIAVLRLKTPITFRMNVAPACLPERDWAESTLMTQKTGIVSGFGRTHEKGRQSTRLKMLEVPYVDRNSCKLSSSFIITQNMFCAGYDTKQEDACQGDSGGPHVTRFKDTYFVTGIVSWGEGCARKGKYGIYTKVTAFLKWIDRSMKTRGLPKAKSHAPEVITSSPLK
Sequence of FXa (P00742 41-179 partner limits assumed): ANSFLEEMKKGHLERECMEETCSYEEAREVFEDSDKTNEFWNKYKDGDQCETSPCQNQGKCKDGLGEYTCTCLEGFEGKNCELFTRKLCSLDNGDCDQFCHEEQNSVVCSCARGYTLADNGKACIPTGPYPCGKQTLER
In short: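 FXa (5 nM) preincubated with increasing compound (top 500 μM) for 10 mins at 37° C in 50 mM Tris, 137 mM NaCl pH 7.4, 5% DMSO, then S2765 added at its KM. Absorbance at 405 nm followed kinetically for 3 hours; IC50 from initial rates, converted to Ki by Cheng-Prusoff.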

thrombin = molecular target: T2, thrombin (Homo sapiens, UniProt P00734); assay: Determination of selectivity: thrombin inhibition (chromogenic substrate GPR); conditions: fold selectivity for FXIIa over thrombin (human); category
T2 construct: FXa (5 nM) and thrombin (5 nM)
In short: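 Thrombin (5 nM) preincubated with increasing compound concentrations (top 500 μM, 5% DMSO) 10 min at 37 °C in 50 mM Tris, 137 mM NaCl pH 7.4, then GPR chromogenic substrate at its KM. pNA release read kinetically at 405 nm for 3 h at 37 °C. IC50 from initial rates, converted to Ki via Cheng–Prusoff.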

SMILES | Ki (FXIIa) [µM] | FXa (human)/FXIIa alpha (human) (FXa) | Thrombin (human)/FXIIa alpha (human) (thrombin)
Cc1ccc(C[C@@H]2C[C@@H](C(=O)NCc3ccc4c(cnn4C)c3)N(C(=O)[C@@H]3NCCC[C@@H]3C(=O)N3CCCC34CC4)C2)cc1 [Example M05773] | 0.2 to 0.8 | ∘∘∘ | ++ (a fold selectivity value of 10 to 100)
Cc1ccc(C[C@@H]2C[C@@H](C(=O)NCc3ccc4c(cnn4C)c3)N(C(=O)[C@@H]3NCCC[C@@H]3C(=O)N(C)CCN(C)CCF)C2)cc1 [Example M06131, (2R,3S)-N-(2-((2-fluoroethyl)(methyl)amino)ethyl)-N-methyl-2-((2S,4R)-2-(((1-methyl-1H-indazol-5-yl)methyl)carbamoyl)-4-(4-methylbenzyl)pyrrolidine-1-carbonyl)piperidine-3-carboxamide] | < 0.2 | ∘∘∘ | +++ (fold selectivity values greater than 100)
Cc1ccc(C[C@@H]2C[C@@H](C(=O)NCc3ccc4c(cnn4C)c3)N(C(=O)[C@@H]3NCCC[C@@H]3C(=O)N3CC(F)C3)C2)cc1 [Example M05878, (2S,4R)-1-((2R,3S)-3-(3-fluoroazetidine-1-carbonyl)piperidine-2-carbonyl)-N-((1-methyl-1H-indazol-5-yl)methyl)-4-(4-methylbenzyl)pyrrolidine-2-carboxamide] | < 0.2 | ∘∘∘ | +++ (fold selectivity values greater than 100)
Cc1ccc(C[C@@H]2C[C@@H](C(=O)NCc3ccc4c(cnn4C)c3)N(C(=O)[C@@H]3NCCC[C@@H]3C(=O)N3CCC4(CC4)C3)C2)cc1 [Example M05766, (2S,4R)-1-[(2R,3S)-3-(5-azaspiro[2.4]heptane-5-carbonyl)piperidine-2-carbonyl]-N-[(1-methylindazol-5-yl)methyl]-4-(p-tolylmethyl)pyrrolidine-2-carboxamide] | < 0.2 | ∘∘∘ | +++ (fold selectivity values greater than 100)
COc1ccc(C[C@@H]2C[C@@H](C(=O)NCc3ccc4c(c3)nnn4C)N(C(=O)[C@@H]3NCCC[C@@H]3C(=O)N3CCCC3)C2)cc1 [Example M04490] | < 0.2 | ∘∘∘ | +++ (fold selectivity values greater than 100)
Cn1nnc2cc(CNC(=O)[C@@H]3C[C@@H](Cc4ccc(C5CC5)cc4)CN3C(=O)[C@@H]3NCCC[C@@H]3C(=O)N3CCCC3)ccc21 [Example M05934, (2S,4R)-4-(4-cyclopropylbenzyl)-N-((1-methyl-1H-benzo[d][1,2,3]triazol-5-yl)methyl)-1-((2R,3S)-3-(pyrrolidine-1-carbonyl)piperidine-2-carbonyl)pyrrolidine-2-carboxamide] | < 0.2 | ∘∘∘ | +++ (fold selectivity values greater than 100)
CCN1CCC[C@H](C(=O)N2CCCC2)[C@@H]1C(=O)N1C[C@H](Cc2ccc(C)cc2)C[C@H]1C(=O)NCc1ccc2c(cnn2C)c1 [Example M05772, (2S,4R)-1-((2R,3S)-1-ethyl-3-(pyrrolidine-1-carbonyl)piperidine-2-carbonyl)-N-((1-methyl-1H-indazol-5-yl)methyl)-4-(4-methylbenzyl)pyrrolidine-2-carboxamide] | 0.2 to 0.8 | ∘∘∘ | +++ (fold selectivity values greater than 100)
CN(C)CCN(C)C(=O)[C@H]1CCCN[C@H]1C(=O)N1C[C@H](Cc2ccc(C3CC3)cc2)C[C@H]1C(=O)NCc1ccc2c(cnn2C)c1 [Example M06060, (2R,3S)-2-((2S,4R)-4-(4-cyclopropylbenzyl)-2-(((1-methyl-1H-indazol-5-yl)methyl)carbamoyl)pyrrolidine-1-carbonyl)-N-(2-(dimethylamino)ethyl)-N-methylpiperidine-3-carboxamide] | < 0.2 | ∘∘∘ | +++ (fold selectivity values greater than 100)
CCO[C@H]1CCN(C(=O)[C@H]2CCCN[C@H]2C(=O)N2C[C@H](Cc3ccc(C)cc3)C[C@H]2C(=O)NCc2ccc3c(cnn3C)c2)C1 [Example M05853, (2S,4R)-1-((2R,3S)-3-((S)-3-ethoxypyrrolidine-1-carbonyl)piperidine-2-carbonyl)-N-((1-methyl-1H-indazol-5-yl)methyl)-4-(4-methylbenzyl)pyrrolidine-2-carboxamide] | < 0.2 | ∘∘∘ | +++ (fold selectivity values greater than 100)
Cc1nnc2cc(CNC(=O)[C@@H]3C[C@@H](Cc4ccc(C5CC5)cc4)CN3C(=O)[C@@H]3NCCC[C@@H]3C(=O)N3CCCC3)ccn12 [Example M06006, (2S,4R)-4-(4-cyclopropylbenzyl)-N-((3-methyl-[1,2,4]triazolo[4,3-a]pyridin-7-yl)methyl)-1-((2R,3S)-3-(pyrrolidine-1-carbonyl)piperidine-2-carbonyl)pyrrolidine-2-carboxamide] | 0.2 to 0.8 | ∘∘∘ | +++ (fold selectivity values greater than 100)
COc1ccc(CNC(=O)[C@@H]2C[C@@H](Cc3ccc(C)cc3)CN2C(=O)[C@@H]2NCCC[C@@H]2C(=O)N2CCCC2)cc1 [Example M05965, (2S,4R)-N-[(4-methoxyphenyl)methyl]-4-(p-tolylmethyl)-1-[(2R,3S)-3-(pyrrolidine-1-carbonyl)piperidine-2-carbonyl]pyrrolidine-2-carboxamide] | ≥ 5 | ∘∘ | ++ (a fold selectivity value of 10 to 100)
Cn1ncc2cc(CNC(=O)[C@@H]3C[C@@H](Cc4ccc(Cl)cc4)CN3C(=O)[C@@H]3NCCC[C@@H]3C(=O)N3CCCC3)ccc21 [Example M05854, (2S,4R)-4-(4-chlorobenzyl)-N-((1-methyl-1H-indazol-5-yl)methyl)-1-((2R,3S)-3-(pyrrolidine-1-carbonyl)piperidine-2-carbonyl)pyrrolidine-2-carboxamide] | 0.2 to 0.8 | ∘∘∘ | +++ (fold selectivity values greater than 100)
[2H]C([2H])([2H])n1ncc2cc(CNC(=O)[C@@H]3C[C@@H](Cc4ccc(C)cc4)CN3C(=O)[C@@H]3NCCC[C@@H]3C(=O)N3CCCC3)ccc21 [Example M05820, (2S,4R)-N-((1-(methyl-d3)-1H-indazol-5-yl)methyl)-4-(4-methylbenzyl)-1-((2R,3S)-3-(pyrrolidine-1-carbonyl)piperidine-2-carbonyl)pyrrolidine-2-carboxamide] | < 0.2 | ∘∘∘ | +++ (fold selectivity values greater than 100)
Cc1ccc(C=C2C[C@@H](C(=O)NCc3ccc4c(cnn4C)c3)N(C(=O)[C@@H]3NCCC[C@@H]3C(=O)N3CCCC3)C2)cc1 (single isomer, unassigned) [Example M05843] | 0.2 to 0.8 | ∘∘∘ | +++ (fold selectivity values greater than 100)
